# Assay results from patent US12544365B2, “Pharmaceutical combination of an EP4 antagonist and immune checkpoint inhibitors for the treatment of tumours” (ROTTAPHARM BIOTECH S.R.L., priority 2019, dated 2026).
# Columns and labels:
# CT26 cancer cell tumours = assay: CT26 syngeneic model of mouse colorectal cancer in Balb/c mice; type: in vivo; details: compounds 30 mg/kg oral daily day 7-23; anti PD-1 i.p. 20 mg/kg day 8, 10 mg/kg days 13, 19, 22
# Experimental: Male Balb/c mice 4-6 weeks old were housed five per cage in a temperature and humidity controlled room with a 12h/12h light/dark cycle. Throughout the experiment the animals had free access to food and water. The Balb/c mice were randomly divided into 6 groups (n=15 in each group): vehicle, Compound 1, Compound 2, anti PD-1, Compound 1+anti PD-1, Compound 2+anti PD-1 group.
# CT26 cells were purchased from ATCC and cultured in Dulbecco's Modified Eagle's Medium (DMEM; ThermoFisher Scientific) supplemented with 10% fetal bovine serum (FBS; Sigma Aldrich) at 37° C. in an incubator with 5% CO2. Cells were sub-cultured twice a week until the number of cells needed for inoculation was obtained.
# On the day of transplantation (day 0) logarithmic growing phase cells were harvested, diluted in PBS and 10^6 cells in 0.2 ml of PBS were subcutaneously inoculated into the lateral abdominal region of each mouse using a 26G syringe.
# On day 7 after inoculation the mice were randomized into the 6 treatment groups each of 15 animals receiving respectively vehicle, Compound 1, Compound 2, anti PD-1 and the combination therapies. […]
# Tumour sizes (mm^3) were evaluated twice a week by using a digital caliper. The tumour volumes were calculated measuring the tumour lengths along the major and minor axis and using the formula: Volume=[[…]]/2.
# [1] = biological target: human recombinant EP4 receptor (Homo sapiens, UniProt P35408); assay: [3H]-PGE2 specific binding on human recombinant EP4 receptor (HEK293 membranes)
# Chain of human recombinant EP4 receptor (P35408 whole entry): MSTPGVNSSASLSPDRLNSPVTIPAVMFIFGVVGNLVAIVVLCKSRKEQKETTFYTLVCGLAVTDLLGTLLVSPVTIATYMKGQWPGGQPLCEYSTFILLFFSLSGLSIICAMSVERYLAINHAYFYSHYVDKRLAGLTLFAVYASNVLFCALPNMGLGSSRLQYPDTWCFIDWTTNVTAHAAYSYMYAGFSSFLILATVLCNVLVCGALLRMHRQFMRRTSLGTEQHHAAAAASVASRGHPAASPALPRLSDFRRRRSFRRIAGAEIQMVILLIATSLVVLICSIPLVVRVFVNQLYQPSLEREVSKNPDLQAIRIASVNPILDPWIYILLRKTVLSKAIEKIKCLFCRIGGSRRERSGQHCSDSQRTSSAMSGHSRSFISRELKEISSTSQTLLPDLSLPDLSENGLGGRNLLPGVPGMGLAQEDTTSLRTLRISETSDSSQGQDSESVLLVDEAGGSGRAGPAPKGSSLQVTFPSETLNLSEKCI
# Experimental: Cell membranes were prepared from HEK293 cell line (Human Embryonic Kidney 293) stably overexpressing human recombinant EP4 receptor. Cells grow adherent in DMEM with Glutamax | containing 10% FBS at 37° C. with 5% CO2. For membranes preparation, culture medium was aspirated from 150 cm^2 flasks in which cells were seeded. Cell monolayers were washed with 10 ml of hypotonic lysis buffer (TRIS 5 mM+EDTA 5 mM-pH 7.4), then cells were detached and lysed with the same buffer and by mechanical scraping. Lysates were centrifuged at 40000×g at 4° C. for 22 min. Pellets were stored at −80° C. until the use.
# [3H]-Prostaglandin E2 ([3H]-PGE2) binding assays were performed in 10 mM MES-KOH buffer pH6, containing 10 mM MgCl2 and 1 mM CaCl2. Ten microgram of protein from membrane fractions are incubated in a total volume of 0.1 ml with 1 nM [3H]-PGE2. In order to determine the total binding or the non specific binding, 1% DMSO or 1 μM PGE2 were added to reaction mixtures, respectively. The specific binding represented >85% of total binding. In competition curves, the diluent was substituted by the test compounds (8 concentration spanning at least 2 order of magnitude; points in duplicates). In an independent series of experiments, competition curves of the same compounds were performed in the presence of Bovine Serum Albumin 0.5%. Incubation was carried out in a 96 multiwell plate for 90 min at room temperature, prior to separation of the bound and free radioligand by rapid filtration on glass fiber filters (Unifilter GFB96, PerkinElmer Inc) pre-soaked in 0.3% polyethyleneimine. Filters were washed with ice cold buffer pH 7.4 (50 mM HEPES, NaCl 500 mM, BSA 0.1%), dried for 30 minutes at 30° C. and then 0.1 ml of MICROSCINT-20 (PerkinElmer Inc) were added. The residual [3H]-PGE2 binding was determined by solid scintillation counter (TopCount, PerkinElmer Inc), after at least 1 hour of stabilization. Results of the competition curves were expressed as IC50 and the corresponding Ki were calculated according to the Chang-Prousoff equation. Finally the Ki value was transformed in pKi (the negative log of Ki).
structure (smiles),measurement,setting,value
"O=C([O-])c1ccc(C2(NC(=O)[C@H]3CCCCN3Cc3ccc(C(F)(F)F)cc3)CC2)cc1.[Na+] [Compound 2, (R)-4-(1-(1-(4-(trifluoromethyl)benzyl)piperidine-2-carboxamido)cyclopropyl)benzoic acid, Sodium salt]",effect on tumour growth (tumour volume),CT26 cancer cell tumours,only showed a slight impairment of tumour growth
same,Ki,[1]; BSA 0.5%,200 nM
same,lower affinity in the presence of proteins (BSA),[1]; BSA 0.5% vs none,6 fold
same,Ki,[1]; None (absence of BSA),31.6 nM
